Measured values published in US20050272770A1, “Compositions and treatments for inhibiting kinase and/or HMG-CoA reductase” (priority 2004, published 2005).
“And” between values parts separate entries of the source, which are not always exact repeats. Equal values may be shown once. Where a name gives a salt, the structure may show the parent alone. Read-outs that look alike come from different tables or passages of the source. One block for each compound: values may come before it.

Experiments:
[1] = biological target: T1, human recombinant p38α protein kinase (Homo sapiens, UniProt Q16539); assay: Human p38α MAP kinase inhibition assay (cell-free, phosphorylation of myelin basic protein); assay type: biochemical
T1 construct: purchased UBI 14-251; host or cells: E. coli
T1 sequence (Q16539 whole entry): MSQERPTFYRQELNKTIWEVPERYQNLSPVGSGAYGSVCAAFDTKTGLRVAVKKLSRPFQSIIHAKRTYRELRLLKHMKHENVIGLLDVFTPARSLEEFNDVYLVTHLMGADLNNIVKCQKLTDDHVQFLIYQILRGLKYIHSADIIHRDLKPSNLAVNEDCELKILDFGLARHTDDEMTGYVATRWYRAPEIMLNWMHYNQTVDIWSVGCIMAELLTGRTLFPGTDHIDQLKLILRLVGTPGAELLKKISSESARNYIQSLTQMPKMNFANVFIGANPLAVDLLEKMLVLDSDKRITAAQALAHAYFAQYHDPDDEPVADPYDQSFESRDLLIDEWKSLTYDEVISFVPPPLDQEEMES
Procedure: In vitro cell-free p38α MAP kinase inhibition assays were conducted by the method as described in Clerk et al., FEBS Lett., 426:93-96 (1998) for a number of lactones in formulas I/IIa/IIb. Briefly, human recombinant p38α protein kinase expressed in E. coli (UBI #14-251) was used. Myelin basic protein (MBP, UBI #13-110) was employed as substrate, and microtiter plate wells were coated with MBP (0.01 mg/ml) overnight at 4° C. Candidate compound and/or vehicle was preincubated with 0.075 μg/mL enzyme in modified HEPES buffer pH 7.4 at 25° C. for 15 minutes. The reaction was initiated by addition of 100 μM ATP and allowed to proceed for another 60 minutes. The reaction was terminated by aspirating the solution. Phosphorylated MBP was detected by incubation with a mouse monoclonal IgG2a anti-phosphoMBP antibody. Bound anti-phosphoMBP antibody was quantitated by incubation with a HRP conjugated goat anti-mouse IgG.

[2] = tested on: oxazolone-induced mouse ear swelling; assay: Model for inhibition of topical inflammation (oxazolone-induced mouse ear swelling); assay type: in vivo, BALB/c male mice; conditions: for % Inh. of oxazolone-induced mouse ear swelling: topical, ear thickness 24 hours after challenge
Procedure: Left ears were untreated. The thickness of both ears of each animal was measured with a Dyer model micrometer gauge 24 hours after oxazolone challenge, and the net increase in thickness of right ears versus left ears was calculated for each animal. Percent inhibition was calculated according to the formula: [(Iv−It)/Iv]×100, where Iv and It respectively refer to the average net increase in right ear thickness (mm) for vehicle and candidate compound treated mice.

[3] = tested on: LPS-induced TNF-α release from human peripheral blood mononuclear cells; assay: Whole cell LPS-stimulated TNF-α release assay; assay type: cell-based
Procedure: The procedure as described in Welker et al., Int. Arch. Allergy and Immunol. 109:110-115 (1996) can be followed. Briefly, a candidate compound and/or vehicle can be preincubated with human peripheral blood mononuclear leukocytes (PBML, 5×10^5/ml) cells in AIM-V medium pH 7.4 for 2 hours. Lipopolysaccharide (LPS, 25 ng/ml) can be added to stimulate the cells, which can be incubated overnight at 37° C. TNF-α cytokine levels in the conditioned medium can then be quantitated using a sandwich ELISA kit.
(§1) Table III below summarizes the results of in vitro assays described above for HMG-CoA and/or MAP kinase inhibitory activity of specific pyrazole compounds.

[4] = biological target: T2, rat liver HMG-CoA reductase (Rattus norvegicus, UniProt P51639); assay: Cell-free HMG-CoA reductase assay; assay type: biochemical; conditions: concentration required to inhibit rat liver HMG-CoA reductase by 50%; read-out: IC50 HMG-CoA R
T2 construct: from tissue; host or cells: rat liver (per the results' head)
T2 sequence (P51639 1-887): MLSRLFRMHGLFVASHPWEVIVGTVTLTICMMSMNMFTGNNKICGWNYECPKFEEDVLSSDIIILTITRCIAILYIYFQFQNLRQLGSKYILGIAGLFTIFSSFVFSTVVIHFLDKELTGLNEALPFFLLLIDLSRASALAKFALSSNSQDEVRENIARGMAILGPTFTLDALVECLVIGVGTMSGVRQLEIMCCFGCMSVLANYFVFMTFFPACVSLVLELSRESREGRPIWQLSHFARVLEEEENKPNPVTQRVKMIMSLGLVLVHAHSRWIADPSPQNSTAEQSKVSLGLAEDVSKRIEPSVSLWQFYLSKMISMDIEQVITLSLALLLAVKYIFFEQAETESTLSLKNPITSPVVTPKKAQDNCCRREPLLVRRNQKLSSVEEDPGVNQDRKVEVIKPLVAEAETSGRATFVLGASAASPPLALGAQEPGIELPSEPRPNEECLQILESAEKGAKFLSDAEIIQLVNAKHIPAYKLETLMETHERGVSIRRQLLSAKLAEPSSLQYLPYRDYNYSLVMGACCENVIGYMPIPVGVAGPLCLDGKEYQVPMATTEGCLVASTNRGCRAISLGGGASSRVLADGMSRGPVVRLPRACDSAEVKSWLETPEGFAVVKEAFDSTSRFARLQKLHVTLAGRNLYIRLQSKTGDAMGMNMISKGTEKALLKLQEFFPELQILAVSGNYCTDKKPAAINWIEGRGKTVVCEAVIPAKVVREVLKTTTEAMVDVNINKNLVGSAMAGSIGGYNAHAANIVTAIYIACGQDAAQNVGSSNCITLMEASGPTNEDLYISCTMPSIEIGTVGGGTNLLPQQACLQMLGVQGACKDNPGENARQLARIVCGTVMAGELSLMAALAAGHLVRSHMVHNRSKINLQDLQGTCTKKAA
Procedure: An example of a cell-free HMG-CoA reductase assay involves radiometric procedures described in Shum et al., Ther. Drug Monit. 20:41-49 (1998), incorporated herein by reference. Briefly, about 150 μg/mL of HMG-CoA reductase can be incubated with a candidate compound, together with about 12 μM [^14C]HMG-CoA and about 200 μM NADPH in about 200 μL 0.2M phosphate buffer (pH about 7.2) for about 0.5 h at about 37° C. The [^14C]mevalonate that forms can be converted under acidic conditions to [^14C]mevalonolactone and separated from un-reacted substrate, for example, by ion-exchange chromatography, and then quantified, for example, by liquid scintillation counting.
as §1

[5] = in vitro, human p38α MAP kinase, Table I, read-out: IC50 p38α
[6] = inhibition of phosphorylation of myelin basic protein by recombinant human p38α MAP kinase by 50%, Table III, read-out: IC50 p38α MAPK
[7] = Homo sapiens, PBMC; read-out: IC50 Whole cell
[8] = Homo sapiens, PBMC, read-out: IC50 Whole cell

Compound: CC(C)c1c(C(=O)Nc2ccccc2)c(-c2ccccc2)c(-c2ccc(F)cc2)n1CC[C@@H](O)C[C@@H](O)CC(=O)O [Atorvastatin calcium]
IC50 [1, 5]: > 100 µM

IC50 [1, 5]: ~20 µM and 20 µM
Compound: CC(C)c1c(C(=O)Nc2ccccc2)c(-c2ccccc2)c(-c2ccc(F)cc2)n1CC[C@@H]1C[C@@H](O)CC(=O)O1 [Atorvastatin lactone]
anti-inflammatory activity in ear swelling model, comparison in words ([2]; observations on Table II): most potent anti-inflammatory activity in this assay
% Inh. of oxazolone-induced mouse ear swelling ([2]; dose 2 × 0.3 mg): 40%
% Inh. of oxazolone-induced mouse ear swelling ([2]; dose 2 × 0.3 mg, listed as atorvastatin lactone): 50% and 58% and 40%
% Inh. of oxazolone-induced mouse ear swelling ([2]; dose 2 × 1 mg): 58%
% Inh. of oxazolone-induced mouse ear swelling ([2]; dose 2 × 2 mg): 50%

Compound: CC(C)c1c(C(=O)Nc2ccccc2)c(-c2ccccc2)c(-c2ccc(F)cc2)n1CC[C@@H](O)C[C@@H](O)CC(=O)O [Atorvastatin sodium]
% Inh. of oxazolone-induced mouse ear swelling ([2]; dose 2 × 0.3 mg): 9%
% Inh. of oxazolone-induced mouse ear swelling ([2]; dose 2 × 1 mg): 31%
% Inh. of oxazolone-induced mouse ear swelling ([2]; dose 2 × 2 mg): 63%

Compound: CCC(C)c1nn(-c2ccnc(Nc3ccccc3)c2)c(-c2ccc(F)cc2)c1/C=C/[C@@H]1C[C@@H](O)CC(=O)O1 (some centres unmarked) [Example 10b]
IC50 [1, 6]: 6 µM
IC50 [3, 7]: 14 µM

Compound: O=C(O)C[C@H](O)C[C@H](O)/C=C/c1c(-c2ccccc2)nn(-c2ccnc(Nc3ccccc3)n2)c1-c1ccccc1 [Example 11a, (3R,5S,E)-7-(3,5-diphenyl-1-(2-(phenylamino)pyrimidin-4-yl)-1H-pyrazol-4-yl)-3,5-dihydroxyhept-6-enoic acid calcium salt]
IC50 [1, 6]: 11 µM
IC50 [3, 8]: 31 µM
IC50 [4]: 0.033 µM

Compound: O=C1C[C@H](O)C[C@@H](/C=C/c2c(-c3ccccc3)nn(-c3ccnc(Nc4ccccc4)n3)c2-c2ccccc2)O1 [Example 11b, (4R,6S,E)-6-(2-(3,5-diphenyl-1-(2-(phenylamino)pyrimidin-4-yl)-1H-pyrazol-4-yl)vinyl)-4-hydroxy-tetrahydropyran-2-one]
IC50 [1, 6]: 6 µM
IC50 [3, 7]: 21 µM

Compound: O=C(O)C[C@H](O)C[C@H](O)CCc1c(-c2ccccc2)nn(-c2ccnc(Nc3ccccc3)n2)c1-c1ccccc1 [Example 11c, (3R,5R)-7-(3,5-diphenyl-1-(2-(phenylamino)pyrimidin-4-yl)-1H-pyrazol-4-yl)-3,5-dihydroxyheptanoic acid]
IC50 [3, 7]: 18 µM
IC50 [4]: > 0.1 µM

Compound: O=C1C[C@H](O)C[C@@H](CCc2c(-c3ccccc3)nn(-c3ccnc(Nc4ccccc4)n3)c2-c2ccccc2)O1 [Example 11d, (4R,6R)-6-(2-(3,5-diphenyl-1-(2-(phenylamino)pyrimidin-4-yl)-1H-pyrazol-4-yl)ethyl)-4-hydroxy-tetrahydropyran-2-one]
IC50 [1, 6]: 8 µM
IC50 [3, 7]: 11 µM

Compound: COc1nccc(-n2nc(C(C)C)c(/C=C/[C@@H](O)C[C@@H](O)CC(=O)O)c2-c2cccc(C(F)(F)F)c2)n1 [Example 11e, (3R,5S,E)-3,5-dihydroxy-7-(3-isopropyl-1-(2-methoxypyrimidin-4-yl)-5-(3-(trifluoromethyl)phenyl)-1H-pyrazol-4-yl)hept-6-enoic acid calcium salt]
IC50 [1, 6]: 36 µM
IC50 ([3]; inhibition of LPS-induced TNF-α release from human peripheral blood mononuclear cells by 50%; read-out: IC50 Whole cell): 30 µM
IC50 [4]: 0.002 µM

IC50 [1, 6]: > 100 µM
IC50 [3, 7]: 16 µM
Compound: COc1nccc(-n2nc(C(C)C)c(/C=C/[C@@H]3C[C@@H](O)CC(=O)O3)c2-c2cccc(C(F)(F)F)c2)n1 [Example 11f, (4R,6S,E)-4-hydroxy-6-(2-(3-isopropyl-1-(2-methoxypyrimidin-4-yl)-5-(3-(trifluoromethyl)phenyl)-1H-pyrazol-4-yl)vinyl)-tetrahydropyran-2-one]

Compound: O=C(O)C[C@H](O)C[C@H](O)/C=C/c1cnn(-c2ccnc(Nc3ccccc3)n2)c1-c1cccc(C(F)(F)F)c1 [Example 11g, (3R,5S,E)-3,5-dihydroxy-7-(1-(2-(phenylamino)pyrimidin-4-yl)-5-(3-(trifluoromethyl)phenyl)-1H-pyrazol-4-yl)hept-6-enoic acid calcium salt]
IC50 [1, 6]: 14 µM
IC50 [3, 8]: 52 µM
IC50 [4]: > 0.1 µM

IC50 [1, 5]: ~34 µM and 34 µM
Compound: CC(C)n1c(/C=C/C(O)CC(O)CC(=O)O)c(-c2ccc(F)cc2)c2ccccc21 (centres unmarked) [Fluvastatin sodium]
% Inh. of oxazolone-induced mouse ear swelling ([2]; dose 2 × 0.3 mg): 28%

Compound: COc1ccc2c(c1)c(CC(=O)O)c(C)n2C(=O)c1ccc(Cl)cc1 [Indomethacin]
% Inh. of oxazolone-induced mouse ear swelling ([2]; dose 2 × 0.3 mg): 44%

Compound: O=C([O-])C[C@H](O)C[C@H](O)/C=C/c1c(C2CC2)nc2ccccc2c1-c1ccc(F)cc1.O=C([O-])C[C@H](O)C[C@H](O)/C=C/c1c(C2CC2)nc2ccccc2c1-c1ccc(F)cc1.[Ca+2] [Pitavastatin calcium]
% Inh. of oxazolone-induced mouse ear swelling ([2]; dose 2 × 0.3 mg): 9%
% Inh. of oxazolone-induced mouse ear swelling ([2]; dose 2 × 2 mg): 60%

Compound: CC[C@H](C)C(=O)O[C@H]1C[C@H](O)C=C2C=C[C@H](C)[C@H](CC[C@@H](O)C[C@@H](O)CC(=O)O)[C@H]21 [Pravastatin sodium]
% Inh. of oxazolone-induced mouse ear swelling ([2]; dose 2 × 0.3 mg): 24%

IC50 [1, 5]: 92 µM
Compound: CC(C)c1nc(N(C)S(C)(=O)=O)nc(-c2ccc(F)cc2)c1/C=C/[C@@H](O)C[C@@H](O)CC(=O)O [Rosuvastatin calcium]

Compound: CC(C)c1nc(N(C)S(C)(=O)=O)nc(-c2ccc(F)cc2)c1/C=C/[C@@H](O)C[C@@H](O)CC(=O)O [Rosuvastatin sodium]
% Inh. of oxazolone-induced mouse ear swelling ([2]; dose 2 × 0.3 mg): 20%

IC50 [1, 5]: > 100 µM
Compound: Simvastatin sodium
